# Measurements published in patent EP1073435B1, “SUBSTITUTED TRICYCLIC PYRAZOLE DERIVATIVES WITH PROTEIN KINASE ACTIVITY” (Abbott GmbH & Co. KG, priority 1998, dated 1999).
# Columns and labels:
# Format in all cases: biochemical
# [1] = target: T1, KDR tyrosine kinase (Homo sapiens, UniProt P35968); experiment: KDR in vitro ELISA; details: ELISA assay, ATP 5µM
# T1 construct: poly-His6 (N); made in house; host or cells: SF-9 insect cells (baculovirus, pVL1393)
# Excerpt: The coding sequence for the KDR intra-cellular domain (aa789-1354) was generated through PCR using cDNAs isolated from HUVEC cells. A poly-His6 sequence was introduced at the N-terminus of this protein as well. This fragment was cloned into transfection vector pVL1393 at the Xba 1 and Not 1 site. Recombinant baculovirus (BV) was generated through co-transfection using the BaculoGold Transfection reagent (PharMingen). Recombinant BV was plaque purified and verified through Western analysis. For protein production, SF-9 cells were grown in SF-900-II medium at 2 x 10^6/ml, and were infected at 0.5 plaque forming units per cell (MOI). Cells were harvested at 48 hours post infection.
# SF-9 cells expressing (His)6KDR(aa789-1354) were lysed by adding 50 ml of Triton X-100 lysis buffer (20 mM Tris, pH 8.0, 137 mM NaCl, 10% glycerol, 1% Triton X-100, 1mM PMSF, 10µg/ml aprotinin, 1 µg/ml leupeptin) to the cell pellet from 1L of cell culture. The lysate was centrifuged at 19,000 rpm in a Sorval SS-34 rotor for 30 min at 4°C. The cell lysate was applied to a 5 ml NiCl2 chelating sepharose column, equilibrated with 50 mM HEPES, pH7.5, 0.3 M NaCl. KDR was eluted using the same buffer containing 0.25 M imidazole. Column fractions were analyzed using SDS-PAGE and an ELISA assay (below) which measures kinase activity. […]
# [2] = target: Lck (Homo sapiens, UniProt P06239); experiment: ELISA tyrosine kinase assay, Lck
# Chain of Lck (P06239 whole entry, species assumed, the tested form may be a part): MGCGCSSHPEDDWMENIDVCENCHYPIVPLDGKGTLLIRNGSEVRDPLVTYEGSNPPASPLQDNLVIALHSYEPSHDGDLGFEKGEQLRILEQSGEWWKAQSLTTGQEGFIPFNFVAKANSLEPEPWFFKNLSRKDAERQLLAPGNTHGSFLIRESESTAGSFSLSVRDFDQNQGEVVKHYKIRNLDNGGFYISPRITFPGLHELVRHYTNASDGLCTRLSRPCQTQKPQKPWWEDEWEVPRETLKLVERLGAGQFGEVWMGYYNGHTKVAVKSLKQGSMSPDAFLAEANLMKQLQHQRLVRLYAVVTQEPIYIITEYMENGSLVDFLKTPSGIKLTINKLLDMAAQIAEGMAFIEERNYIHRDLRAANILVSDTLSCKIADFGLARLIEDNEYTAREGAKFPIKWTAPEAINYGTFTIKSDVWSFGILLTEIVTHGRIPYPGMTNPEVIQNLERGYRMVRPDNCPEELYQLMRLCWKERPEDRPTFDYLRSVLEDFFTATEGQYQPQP
# Protocol: Lck or truncated forms of Lck may be commercially obtained ( e.g. from Upstate Biotechnology Inc. (Saranac Lake, N.Y) and Santa Cruz Biotechnology Inc. (Santa Cruz, Ca.)) or purified from known natural or recombinant sources using conventional methods.
# • 1. Plate Preparation: Dilute PGT stock (50mg/ml, frozen) in PBS to a 250µg/ml. Add 125µl per well of Coming modified flat bottom high affinity ELISA plates (Corning #25805-96). Add 125µl PBS to blank wells. Cover with sealing tape and incubate overnight 37°C. Wash 1x with 250µl washing buffer and dry for about 2hrs in 37°C dry incubator. Store coated plates in sealed bag at 4°C until used. • 2. Tyrosine Kinase Reaction: • Prepare inhibitor solutions at a 4x concentration in 20% DMSO in water. • Prepare reaction buffer • Prepare enzyme solution so that desired units are in 50µl, e.g. for KDR make to 1 ng/µl for a total of 50ng per well in the reactions. Store on ice. • Make 4x ATP solution to 20µM from 100mM stock in water. Store on ice • Add 50µl of the enzyme solution per well • Add 25µl 4x inhibitor • Add 25µl 4x ATP for inhibitor assay • Incubate for 10 minutes at room temperature • Stop reaction by adding 50µl 0.05N HCl per well • Wash plate **Final Concentrations for Reaction: • ATP: 5µM • 5% DMSO • 3. […] Shake on plate reader. • Read OD immediately at 450nm […]
# [3] = target: T2, human Tie-2 (Homo sapiens, UniProt Q02763); experiment: ELISA tyrosine kinase assay, TIE2
# T2 construct: human Tie-2 intra-cellular domain (aa775-1124) was generated through PCR; made in house; host or cells: SF-9 insect cells (baculovirus)
# T2 sequence (Q02763 775-1124): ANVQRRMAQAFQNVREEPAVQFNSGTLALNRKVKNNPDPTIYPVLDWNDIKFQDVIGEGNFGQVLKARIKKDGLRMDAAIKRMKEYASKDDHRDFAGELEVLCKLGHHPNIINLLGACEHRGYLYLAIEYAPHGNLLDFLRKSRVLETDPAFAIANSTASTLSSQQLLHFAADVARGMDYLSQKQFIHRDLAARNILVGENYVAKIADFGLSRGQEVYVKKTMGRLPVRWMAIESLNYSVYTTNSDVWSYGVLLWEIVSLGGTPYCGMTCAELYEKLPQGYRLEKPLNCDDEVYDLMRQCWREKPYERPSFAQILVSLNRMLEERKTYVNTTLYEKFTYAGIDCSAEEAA
# Excerpt: The coding sequence for the human Tie-2 intra-cellular domain (aa775-1124) was generated through PCR using cDNAs isolated from human placenta as a template. A poly-His6 sequence was introduced at the N-terminus and this construct was cloned into transfection vector […] at the Xba 1 and Not 1 site. Recombinant BV was generated through co-transfection using the BaculoGold Transfection reagent (PharMingen). Recombinant BV was plaque purified and verified through Western analysis. For protein production, SF-9 insect cells were grown in SF-900-II medium at 2 x 10^6/ml, and were infected at MOI of 0.5. Purification of the His-tagged kinase used in screening was analogous to that described for KDR.
# The disclosed protocol can be adapted for determining activity with respect to a specific RTK. For example, preferred protocols for conducting the ELISA experiments for KDR is provided below. Adaptation of these protocols for determining a compounds activity for other members of the RTK family, as well as non-receptor tyrosine kinases, are well within the abilities of those in the art.
# • 1. Plate Preparation: Dilute PGT stock (50mg/ml, frozen) in PBS to a 250µg/ml. Add 125µl per well of Coming modified flat bottom high affinity ELISA plates (Corning #25805-96). Add 125µl PBS to blank wells. Cover with sealing tape and incubate overnight 37°C. […] Shake on plate reader. • Read OD immediately at 450nm
# [4] = target: T3, zapfl (Homo sapiens, UniProt P43403); experiment: ELISA tyrosine kinase assay, zapfl (ZAP70)
# T3 construct: the region encoding the entirety of ZAP70 (amino acids 1-619); made in house; host or cells: SF-9 insect cells (baculovirus, pVL1393)
# T3 sequence (P43403 1-619): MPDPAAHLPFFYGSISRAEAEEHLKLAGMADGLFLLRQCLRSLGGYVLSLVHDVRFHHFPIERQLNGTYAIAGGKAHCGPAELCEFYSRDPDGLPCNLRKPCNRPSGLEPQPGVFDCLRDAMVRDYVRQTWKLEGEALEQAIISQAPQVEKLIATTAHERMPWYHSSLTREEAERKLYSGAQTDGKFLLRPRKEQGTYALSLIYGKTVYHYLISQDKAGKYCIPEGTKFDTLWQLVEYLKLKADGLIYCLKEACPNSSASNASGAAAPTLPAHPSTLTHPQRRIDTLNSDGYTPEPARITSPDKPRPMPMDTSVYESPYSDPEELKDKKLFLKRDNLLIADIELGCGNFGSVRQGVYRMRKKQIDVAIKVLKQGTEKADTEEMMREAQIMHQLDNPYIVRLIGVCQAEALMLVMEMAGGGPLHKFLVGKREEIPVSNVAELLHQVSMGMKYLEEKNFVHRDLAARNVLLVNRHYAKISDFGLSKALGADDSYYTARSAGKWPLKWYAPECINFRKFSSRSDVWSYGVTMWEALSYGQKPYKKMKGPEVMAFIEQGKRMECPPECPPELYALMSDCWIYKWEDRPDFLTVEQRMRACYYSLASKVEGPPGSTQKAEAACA
# Excerpt: The baculoviral expression vector used was pVL1393. (Pharmingen, Los Angeles, Ca.) The nucleotide sequence encoding amino acids M(H)6 LVPR9S was placed 5' to the region encoding the entirety of ZAP70 (amino acids 1-619). The nucleotide sequence encoding the ZAP70 coding region was generated through PCR using cDNA libraries isolated from Jurkat immortalized T-cells. The histidine residues enabled affinity purification of the protein (vide infra). The LVPR9S bridge constitutes a recognition sequence for proteolytic cleavage by thrombin, enabling removal of the affinity tag from the enzyme. SF-9 insect cells were infected at a multiplicity of infection of 0.5 and harvested 48 hours post infection.
# SF-9 cells were lysed in a buffer consisting of 20 mM Tris, pH 8.0, 137 mM NaCl, 10% glycerol, 1% Triton X-100, 1 mM PMSF, 1 µg/ml leupeptin, 10 µg/ml aprotinin and I mM sodium orthovanadate. The soluble lysate was applied to a chelating sepharose HiTrap column (Pharmacia) equilibrated in 50 mM HEPES, pH 7.5, 0.3 M NaCl. Fusion protein was eluted with 250 mM imidazole. The enzyme was stored in buffer containing 50 mM HEPES, pH 7.5, 50 mM NaCl and 5 mM DTT.
# The disclosed protocol can be adapted for determining activity with respect to a specific RTK. […]
# • 1. […] Shake on plate reader. • Read OD immediately at 450nm
# T1 sequence (P35968 789-1354): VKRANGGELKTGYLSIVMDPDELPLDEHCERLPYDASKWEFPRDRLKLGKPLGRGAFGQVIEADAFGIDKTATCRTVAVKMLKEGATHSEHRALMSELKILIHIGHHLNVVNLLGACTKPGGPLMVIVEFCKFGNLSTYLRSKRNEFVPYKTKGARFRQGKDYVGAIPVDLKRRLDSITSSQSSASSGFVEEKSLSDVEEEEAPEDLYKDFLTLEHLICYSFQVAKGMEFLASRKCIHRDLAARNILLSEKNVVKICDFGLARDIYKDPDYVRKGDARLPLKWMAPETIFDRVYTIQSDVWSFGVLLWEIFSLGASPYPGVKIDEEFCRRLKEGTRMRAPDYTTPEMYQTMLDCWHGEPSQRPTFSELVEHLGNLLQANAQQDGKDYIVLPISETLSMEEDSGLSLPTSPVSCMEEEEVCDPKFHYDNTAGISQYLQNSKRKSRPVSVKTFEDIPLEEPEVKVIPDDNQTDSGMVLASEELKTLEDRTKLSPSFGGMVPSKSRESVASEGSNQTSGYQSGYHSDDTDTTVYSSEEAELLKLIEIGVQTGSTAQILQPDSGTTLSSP
structure (smiles),measurement,setting,value
c1ccc2c(c1)SCc1c(-c3ccncc3)n[nH]c1-2 [Compound III],IC50,[1],13.4 µM
same,IC50,[2],> 30 µM
same,IC50,[3],> 30 µM
same,IC50,[4],30.3 µM
